# Results from the METLIN SMRT retention time set (Domingo-Almenara et al. 2019).
# Experiment: gradient 5% acetonitrile 3 min, to 50% in 2 min, to 85% in 15 min, held 3 min, 100 µL/min
# Conditions: column: Zorbax Extend-C18 2.1 x 50 mm; eluents: water / acetonitrile, 0.1% formic acid
# Method in brief: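 Standards, all pure, were combined into mixtures of ~100 molecules and run at 100 μL/min on a Zorbax Extend-C18 column (2.1 × 50 mm, 1.8 μm) with water and acetonitrile, each containing 0.1% formic acid. A coupled quadrupole time-of-flight mass spectrometer operated in positive and negative ionization mode. Retention time values come from computationally picked adduct peaks, each inspected manually.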
row,SMILES,RP-LC retention time
1,Cc1ccccc1NC(=O)c1cc(C(C)C)n2nccc2n1,1090 s
2,Cc1cc(N2CCN(C(=O)Nc3ccc(C)c(Cl)c3)CC2)nc(N2CCCC2)n1,747 s
3,O=C(NCC1CCCO1)C1CCN(c2ncnc3c2oc2ccccc23)CC1 (centres undefined),618 s
4,CC(NC(=O)CCCc1ccccc1)C(=O)N1CCN(c2ccccn2)CC1 (centres undefined),626 s
5,O=C(O)c1ccc(N2CCCC(CN3CCCC3)C2)c(NS(=O)(=O)c2cccc(F)c2)c1 (centres undefined),648 s
6,CCc1noc(-c2ccnc(-n3cnc(C(=O)NC(C)C)c3)c2)n1,784 s
7,CCn1nccc1-c1cccc(-c2noc(-c3cccnc3Cl)n2)c1,1040 s
8,Cc1nnc2ccc(S(=O)(=O)N(Cc3cccc(F)c3)c3ccccc3)cn12,866 s
9,O=C(NCc1cccnc1)c1ccc2c(c1)N(CC(=O)N1CCCC1)C(=O)CO2,619 s
10,Fc1cccc(-c2noc(-c3nc(-c4ccncc4)no3)n2)c1,951 s
11,CC(C)c1noc(-c2ccnc(-n3cnc(C(=O)NC4CCCCCC4)c3)c2)n1,771 s
12,CC1(C)COCN1S(=O)(=O)c1ccc(C(=O)Nc2nnc(-c3cccs3)o2)cc1,750 s
13,COc1nc2ccccc2nc1N1CCCC(C(=O)Nc2ccccc2F)C1 (centres undefined),1140 s
14,O=c1n(Cc2cccc(Br)c2)nc2ccc(S(=O)(=O)N3CCCC3)cn12,928 s
15,COc1ccc(NC(=O)C2CCCN(c3nc4c(s3)c(C)nn4-c3ccccc3)C2)c(OC)c1 (centres undefined),1160 s
16,CCn1ccc2c(cc(C(=O)Nc3ccc(C(C)C)cc3)n2C)c1=O,902 s
17,CC(C)(C)NC(=O)N1CCCC(c2nc(CCOCC3CCOCC3)no2)C1 (centres undefined),728 s
18,CN(CCNC(=O)Cn1c2ccccc2c2cnn(C)c(=O)c21)Cc1ccccc1,640 s
19,COCc1cc(=O)n(CC(=O)Nc2ccc(C)cc2C)c(N2CCOCC2)n1,844 s
20,COCCCNC(=O)C1CCCN(c2nc3ccc(Cl)cc3[nH]2)C1 (centres undefined),610 s
21,CCCOc1nc2ccccc2nc1N1CCCC(C(=O)Nc2ccc(OC)c(OC)c2)C1 (centres undefined),1130 s
22,CCCc1nnc(NC(=O)c2ccc3[nH]c(C)cc(=O)c3c2)s1,607 s
23,Cc1nnc2n1CCC(NC(=O)Cc1ccsc1)CC2 (centres undefined),573 s

row,SMILES,RP-LC retention time
1,CSc1ncc(C(=O)N2CCN(c3ccccn3)CC2)c(-c2ccccc2)n1,837 s
2,CCC1Oc2ccc(S(=O)(=O)N3CCC(C(=O)N4CCc5ccccc54)CC3)cc2NC1=O (centres undefined),917 s
3,CC(C)N1C(=O)c2cccnc2Sc2cc(NC(=O)c3ccc(F)cc3Cl)ccc21,916 s
4,CCCN1C(=O)c2cc(C(=O)NCCc3ccccc3)nn2CC1(C)C(=O)NC1CCCC1 (centres undefined),864 s
5,Cc1cc(-c2nn3c(COc4ccc(Cl)cc4)nnc3s2)no1,948 s
6,CCn1nnc2ccc(-c3noc(-c4ccc(C)cc4)n3)cc21,1140 s
7,COc1ccccc1CNC(=O)C1CCCN(S(=O)(=O)c2cc(-c3noc(C)n3)cs2)C1 (centres undefined),892 s
8,Cc1cccc(NC(=O)N2c3ccccc3NC3=C(C(=O)CCC3)C2c2ccco2)c1C (centres undefined),813 s
9,O=C(Nc1ccccc1)C1CC(=O)N(CCc2c[nH]c3ccc(Cl)cc23)C1 (centres undefined),825 s
10,CC(C)c1nc(N2CCCC2=O)sc1C(=O)NCc1ccc(N(C)C)cc1,675 s
11,COc1cccc(N2CCN(C(=O)Cc3csc4nc(-c5ccccc5)cn34)CC2)c1,833 s
12,Cc1ccn2c(NC(=O)CC(C)(C)C)c(-c3ccc(F)cc3)nc2c1,669 s
13,Fc1cccc(-c2nc3ncccn3c2NCc2ccc(Cl)cc2)c1,834 s
14,O=C(NCc1cnoc1-c1ccc(F)cc1)c1ccccc1F,866 s
15,COc1ccc(C(=O)Nc2nc(-c3ccc4c(c3)N(C)C(=O)C(C)O4)cs2)cc1 (centres undefined),984 s
16,CCCc1nnc(SCC(=O)NC2CCCCCC2)n1-n1cccc1,831 s
17,CCc1ccc(NC(=O)Cc2nnc3cc(-c4nc(CC)no4)ccn23)cc1,826 s
18,O=C(NCc1csc(C2CCCN(C(=O)c3ccc(F)cc3F)C2)n1)C1CC1 (centres undefined),717 s
19,CC1=NS(=O)(=O)N(Cc2ccccc2)C=C1C(=O)OCc1ccc(F)cc1F,1090 s
20,O=C(c1cc(C2CC2)[nH]n1)N1CCn2c(nnc2-c2ccccc2)C1,640 s
21,CCN1C(=O)C(CC(=O)NCC(C)C)Sc2ncccc21 (centres undefined),689 s
22,Cc1ccc(C(C)NC(=O)CN2C(=O)NC3(CCCCC3)C2=O)cc1 (centres undefined),804 s
23,CCOC(=O)c1nc(NCCCN2CCN(c3cc(C)ccc3C)CC2)c2ccccc2n1,715 s

row,SMILES,RP-LC retention time
1,COC(=O)c1c(NCc2ccccc2)c2cccc(Cl)c2[nH]c1=O,786 s
2,CC(Oc1cccc(Cl)c1)C(=O)Nc1ccc2c(c1)Sc1ncccc1C(=O)N2C (centres undefined),911 s
3,Cc1ccc2ncn(C3CCN(S(=O)(=O)c4ccc(C)c(F)c4)CC3)c(=O)c2c1,968 s
4,COCCNC(=O)c1nnc(-c2ccc(S(=O)(=O)N3CCOCC3)cc2)o1,668 s
5,Cc1oc(C(C)C)nc1C(=O)NCc1ccccc1C(F)(F)F,1050 s
6,Cc1ccc(-c2noc(Cn3c(=O)n(CC(C)C)c(=O)c4ccccc43)n2)cc1,1240 s
7,Cc1cccc(Nc2ccc(N3CCN(C(=O)Cc4c[nH]c5ccccc45)CC3)nn2)n1,574 s
8,O=C1CCCC(=O)N1CCS(=O)(=O)N1CCN(c2cccc(Cl)c2Cl)CC1,887 s
9,CCN(CC)c1nc2cc(C(=O)NCC(C)C)ccc2c(=O)n1Cc1ccccc1,1090 s
10,COC(=O)c1ccc(CSc2nnc(C(C)C)c3cnn(-c4ccc(F)cc4)c23)o1,840 s
11,CCCCS(=O)(=O)c1cc2c(cc1NC(=O)c1ccccc1)n(C)c(=O)n2C,887 s
12,CCc1nc2ccccc2c(=O)n1Cc1noc(C2CC(=O)N(c3ccc(C)c(C)c3)C2)n1 (centres undefined),927 s
13,O=C(NCc1ccc(F)cc1)Nc1ccc(-c2nc(-c3ccccc3)co2)cc1,1050 s
14,CCOC(=O)C1CCc2sc(NC(=O)Cc3sc(C)nc3C)nc21 (centres undefined),639 s
15,Cc1ccccc1Cn1nnc2cc(C(=O)N3CCN(c4ncccn4)CC3)ccc21,819 s
16,COc1ccccc1-c1noc(C2CCCN2C(=O)Nc2ccc(Cl)cc2)n1 (centres undefined),920 s
17,CC(C)Cn1ccc2c(cc(C(=O)Nc3ccccc3Br)n2C)c1=O,881 s
18,COc1ccc(-c2nc(C)cc3nn(CC(=O)Nc4cc(C)cc(C)c4)c(=O)n23)cc1,906 s
19,O=C(Cn1ccc2ccc(N3CCOCC3)nc21)NCc1ccc(C(F)(F)F)cc1,958 s
20,Cc1cc(C)c(S(=O)(=O)N2CCc3c(c(-c4nnc(-c5ccccc5F)o4)nn3C)C2)cc1C,1070 s
21,Cc1csc(NC(=O)Cn2nc3c(cc2=O)CCCCC3)n1,735 s
22,CCn1cc(-c2ccc(C)cc2)cc1C(=O)N1CCOCC1,932 s
23,COCC(C)NC(=O)C(=O)NCc1cccs1 (centres undefined),658 s

row,SMILES,RP-LC retention time
1,Cc1cc2c(cc1S(=O)(=O)N1CCCC1)N(C(=O)C1CC1)CC2,876 s
2,COc1ccc(OC)c(NC(=O)N(C)CCc2noc(-c3ccccc3)n2)c1,918 s
3,Cc1nc2cccnc2n1C1CCN(C(=O)Nc2cccc(Br)c2)CC1,673 s
4,Cc1cc(C)cc(C(=O)NCc2ccc3c(c2)nnn3C)c1,755 s
5,Cc1ccccc1Cn1c(CN2CCC(C(=O)NC3CCCCCC3)CC2)cc2ccccc21,885 s
6,O=C(CSc1ccc(-c2cccc([N+](=O)[O-])c2)nn1)c1ccc(F)cc1,944 s
7,Cc1ccc(F)cc1S(=O)(=O)N1CCC(n2cnnc2C2CC2)CC1,734 s
8,Cn1cc(C(=O)NCc2ccc(N3CCCCC3)cc2)c2cccnc21,576 s
9,CCSc1nnc(-c2nn(C)c3c2CN(C(=O)c2cccc(Cl)c2)CC3)n1C,788 s
10,CCn1ccc(NC(=O)NC2CCCC2)n1,730 s
11,CCn1cc(CN(C)C(=O)C2N(C(C)C)C(=O)C23CCCC3)c(C)n1 (centres undefined),612 s
12,CCC(C)NC(=O)Cn1c(=O)n(-c2cc(OC)cc(OC)c2)c(=O)c2ccccc21 (centres undefined),800 s
13,N#CCc1ccc(NC(=O)C2CCCN(S(=O)(=O)Cc3ccccc3Cl)C2)cc1 (centres undefined),905 s
14,Cc1cccc(NC(=O)N2CCC3(CC2)NC(=O)c2ccccc2O3)c1C,775 s
15,c1ccc(-n2nnnc2N2CCN(c3ccccn3)CC2)cc1,571 s
16,O=C(Cn1c(=O)cc(-c2nc(C3CC3)no2)c2ccccc21)NCc1ccc(Cl)cc1,979 s
17,NC(=O)C1CCN(C(c2ccccc2F)c2sc3nc(-c4ccco4)nn3c2O)CC1 (centres undefined),677 s
18,CCn1cc(-c2ccc(OC)cc2)cc1C(=O)N1CCCC1,952 s
19,COc1ccc(CNC(=O)C2=C3CCCN3c3ccc(F)cc3S2(=O)=O)cc1,876 s
20,CN1c2cc(F)ccc2C(=O)NC12CCN(C(=O)c1ccc(F)c(Cl)c1)CC2,823 s
